In patent publication US5039811A, “Preparation of N-(pyridinyl)-1H-indol-1-amines” (Hoechst-Roussel Pharmaceuticals Inc., priority 1990, dated 1991):
Structures can show the parent of a compound that is named as a salt. Where two headings read alike, the source gives them in different places.

Experiments:
Format in all cases: in vivo
[1] = test system: Scopolamine Induced Memory Deficit; test: Dark Avoidance Assay (reversal of scopolamine induced memory deficit); details: s.c., mice
Description: In this assay mice are tested for their ability to remember an unpleasant stimulus for a period of 24 hours. A mouse is placed in a chamber that contains a dark compartment; a strong incandescent light drives it to the dark compartment, where an electric shock is administered through metal plates on the floor. The animal is removed from the testing apparatus and tested again, 24 hours later, for the ability to remember the electric shock.
If scopolamine, an anticholinergic that is known to cause memory impairment, is administered before an animal's initial exposure to the test chamber, the animal re-enters the dark compartment shortly after being placed in the test chamber 24 hours later.

[2] = test system: Tetrabenazine-Induced Ptosis; test: Prevention of Tetrabenazine-Induced Ptosis in Mice; details: Mus musculus, read-out: Ed50 (prevention of tetrabenazine-induced ptosis)
Description: The antidepressant activities were evaluated in this invention on the basis of prevention of Tetrabenazine-induced ptosis in mice. The test method and results are described below.
Tetrabenazine (TBZ) induces behavioral depression with concomitant ptosis in mice similar to reserpine. Antidepressant compounds, both monoamineoxidase inhibitors and tricyclics, are known to prevent or antagonize these effects and the degree of antagonism correlates with clinical efficacy. The prevention of TBZ-induced ptosis in mice is used as a preliminary screen for possible antidepressant activity. The method used in this invention is as follows:
Male mice weighing 20 to 30 grams are used in test groups of five subjects. All compounds are dissolved or suspended with a suitable surfactant in distilled water and administered in volumes of 10 ml/kg of body weight. TBZ solution is made from the methanesulfonate salt and the concentration is adjusted to enable administration of 60 mg/kg of base by intraperitoneal (i.p.) injection.
The pretreatment time is measured from the time of dosing to observation. Therefore, when a 30-minute pretreat is utilized, drug and TBZ are given simultaneously. A control group received solvent and TBZ at intervals identical to drug group. For a primary screen, the drug is administered i.p. and a group size of five is utilized. Eight animals/group are used for a dose range.
The total score for each group of five in a primary screen will, therefore, be from 0 to 20 and these scores are used as indications of drug activity.
The vehicle control group score is used as a determinant of the validity of each test. […] The calculation of percent inhibition of ptosis is: [formula]

[3] = test system: 2-phenyl-1,4-benzoquinone-induced writhing; test: 2-phenyl-1,4-benzoquinone-induced writhing (PQW) test in mice; details: Mus musculus, sc, read-out: ANALGESIC ACTIVITY ED50, POW
Source text: (§1) Compounds I of the present invention are also useful as analgesic agents due to their ability to alleviate pain in mammals. […] Exptl. Biol. Med., 95, 729 (1957)] and in modified Haffner's analgesia.

[4] = test system: sensitivity of mice to pressure stress (artery clip on tail); test: Modified Haffner's Analgesia (tail clip pressure stress); details: Mus musculus, sc, read-out: ANALGESIC ACTIVITY ED50, Modified Haffner's Analgesia
Source text: as §1
The latter assay is used to evaluate analgesic activity by measuring drug-induced changes in the sensitivity of mice to pressure stress by placing an artery clip (21/2 inches long) on their tail. The procedure used is a modification of the test developed by Haffner, Dtsch. Med. Wschr. 55, 731 (1929), and it is described below.
Male mice (Charles River, DC-1), from 18-30 grams are used for the test. An artery clip is applied to the root of the tail of a mouse (approximately 1/2 inch from the body) to induce pain. The animals quickly respond to this noxious stimuli by biting the clip or the location of the clip. This reaction time, the interval between stimulus onset and response, is recorded in 1/10 second increments by a stop watch.
For a time response, the screening dose (25 mg/kg) is administered subcutaneously (10 ml/kg) to the animal receiving food and water ad libitum before testing. Animals receiving the compound orally are fasted 18-24 hours before drug administration. Drug to be tested is prepared with distilled water and if insoluble, one drop of a surfactant is added.
Twenty-eight animals (seven/group) are administered the drug 15, 30, 45 and 60 minutes prior to testing.
The cut-off time (CO) is determined by taking the Xav +3σ of the combined response latencies of the control mice in all time periods where Xav is the average of X and σ is the standard deviation.
Any reaction time, in subsequent drug tests, which is greater than the CO (for the same time period) therefore exceeds 99% of a normal Gaussian distribution and is called "positive response" indicative of analgesic activity. A time response indicates the period of greatest analgesic effect after dosing. The ED50 is determined at the peak time of drug activity. A minimum of three dose groups are used. ED50 's are calculated using computer analysis.

[5] = po, male mice, TBZ 60 mg/kg i.p.
[6] = male mice, at peak time of drug activity
[7] = ip, male mice, TBZ 60 mg/kg i.p.

## CCCN(c1ccncc1)n1ccc2ccccc21.O=C(O)/C=C\C(=O)O [Example 4, N-Propyl-N-(4-pyridinyl)-1H-indol-1-amine maleate]
[1]; 0.08 mg/kg body weight
  % of Animals With Scopolamine Induced Memory Deficit Reversed: 27%
[2]; [5]
  ED50: 5.1 mg/kg
[3]; mice
  ED50: 5.1 mg/kg
[4]; [6]
  ED50: 31 mg/kg

## CCN(c1ccncc1)n1ccc2ccccc21.O=C(O)/C=C\C(=O)O [Example 3, N-Ethyl-N-(4-pyridinyl)-1H-indol-1-amine maleate]
[1]; 0.63 mg/kg body weight
  % of Animals With Scopolamine Induced Memory Deficit Reversed: 33%
[2]; [5]
  ED50: 5.6 mg/kg

## CCc1cn(N(C)c2ccncc2)c2ccccc12.Cl [Example 11, 3-Ethyl-N-methyl-N-(4-pyridinyl)-1H-indol-1-amine hydrochloride]
[3]; mice
  ED50: 0.9 mg/kg
[4]; [6]
  ED50: 1 mg/kg

## Cc1cn(Nc2ccncc2)c2ccccc12.O=C(O)C(=O)O [Example 19, 3-Methyl-N-(4-pyridinyl)-1H-indol-1-amine oxalate]
[2]; [7]
  ED50: 1 mg/kg
[3]; mice
  ED50: 0.4 mg/kg
[4]; [6]
  ED50: 0.7 mg/kg

## C=CCN(c1ccncc1)n1ccc2ccccc21.O=C(O)/C=C\C(=O)O [Example 23, N-(2-Propen-1-yl)-N-(4-pyridinyl)-1H-indol-1-amine maleate]
[2]; [7]
  ED50: 4.2 mg/kg
[3]; mice
  ED50: 1.3 mg/kg
[4]; [6]
  ED50: 3.8 mg/kg

## CC(C)=CCN1CCC2(C)c3cc(O)ccc3CC1C2C (stereo not shown) [Pentazocine, reference compound]
[3]
  ED50: 1.3 mg/kg
[4]
  ED50: 3.9 mg/kg

## CNCCCN1c2ccccc2CCc2ccccc21 [Desipramine, reference compound]
[2]; po
  ED50: 2.3 mg/kg

## O=C(O)/C=C\C(=O)O.c1ccc2c(c1)ccn2Nc1ccncc1 [Example 1, N-(4-Pyridinyl)-1H-indol-1-amine maleate]
[1]; 0.31 mg/kg body weight
  % of Animals With Scopolamine Induced Memory Deficit Reversed: 33%
[2]; [5]
  ED50: 3.3 mg/kg
[3]; mice
  ED50: 0.86 mg/kg
[4]; [6]
  ED50: 5.7 mg/kg

## CNC(=O)Oc1ccc2c(c1)[C@]1(C)CCN(C)[C@@H]1N2C [Physostigmine, (3aS-cis)-1,2,3,3a,8,8a-hexahydro-1,3a,8-trimethyl-pyrrolo[2,3-b]indol-5-ol, methyl carbamate, reference compound]
[1]; 0.31 mg/kg body weight
  % of Animals With Scopolamine Induced Memory Deficit Reversed: 20%

## C=Cc1cn(N(C)c2ccncc2)c2ccccc12.O=C(O)/C=C\C(=O)O [Example 10, 3-Ethenyl-N-methyl-N-(4-pyridinyl)-1H-indol-1-amine maleate]
[3]; mice
  ED50: 1 mg/kg
[4]; [6]
  ED50: 1 mg/kg

## CCCN(c1ccncc1)n1cc(C)c2ccccc21.O=C(O)/C=C\C(=O)O [Example 20, 3-Methyl-N-propyl-N-(4-pyridinyl)-1H-indol-1-amine maleate]
[1]; 0.31 mg/kg body weight
  % of Animals With Scopolamine Induced Memory Deficit Reversed: 27%
[2]; [7]
  ED50: 1.8 mg/kg
[3]; mice
  ED50: 4.1 mg/kg
[4]; [6]
  ED50: 1.4 mg/kg

## CCN(c1ccncc1)n1cc(C=O)c2ccccc21 [Example 7, N-Ethyl-N-(4-pyridinyl)-1H-indol-1-amine-3-carboxaldehyde maleate]
[2]; [5]
  ED50: 11.9 mg/kg

## CN(c1ccncc1)n1ccc2ccccc21.O=C(O)/C=C\C(=O)O [Example 2, N-Methyl-N-(4-pyridinyl)-1H-indol-1-amine maleate]
[1]; 0.04 mg/kg body weight
  % of Animals With Scopolamine Induced Memory Deficit Reversed: 53%
[2]; [5]
  ED50: 3.3 mg/kg
[3]; mice
  ED50: 3.2 mg/kg
[4]; [6]
  ED50: 16.3 mg/kg

## CN(c1ccncc1)n1ccc2cc([N+](=O)[O-])ccc21.O=C(O)/C=C\C(=O)O [Example 18, N-Methyl-5-nitro-N-(4-pyridinyl)-1H-indol-1-amine maleate]
[3]; mice
  ED50: 1 mg/kg

## CCCN(c1ccncc1)n1ccc2cc(OC)ccc21.O=C(O)/C=C\C(=O)O [Example 5, 5-Methoxy-N-propyl-N-(4-pyridinyl)-1H-indol-1-amine maleate]
[2]; [5]
  ED50: 29.8 mg/kg

## CCCN(c1ccncc1F)n1cc(C)c2ccccc21.Cl [Example 22, N-(3-Fluoro-4-pyridinyl)-N-propyl-3-methyl-1H-indol-1-amine hydrochloride]
[1]; 0.31 mg/kg body weight
  % of Animals With Scopolamine Induced Memory Deficit Reversed: 33%

## CN(c1ccncc1)n1cc(C=O)c2ccccc21 [Example 6, N-Methyl-N-(4-pyridinyl)-1H-indol-1-amine-3-carboxaldehyde maleate]
[2]; [5]
  ED50: 9.7 mg/kg
